Reference: patent publication US20090286799A1, “METHODS FOR THE TREATMENT OF BRAIN EDEMA” (priority 2008, published 2009)

What was measured:
[1] = target: T1, Recombinant human pro-MMP-9 (Homo sapiens, UniProt P14780); assay: MMP Assay Kit (5-FAM/QXL520 FRET peptide) for MMP-9 bioactivity; format: biochemical; conditions: final concentration of PAN-811 1 mM, calcium 0.4 mM, 30 min room temperature
T1 construct: purchased AnaSpec 72009
Source text: The principle behind this analysis is as follows. A 5-FAM/QXL™520 fluorescence resonance energy transfer (FRET) peptide is used as a substrate for MMP. The fluorescence of 5-FAM is quenched by QXL™520 in intact FRET peptide. However, upon cleavage of FRET into two separate fragments by MMP, in the presence of Ca^2+, the fluorescence of 5-FAM is recovered, and can be monitored at excitation/emission wavelengths of […]/520 nm with a fluorometer. Thus, an inhibitor of MMP-9 could suppress the cleavage of FRET by MMP-9 and decrease the fluorescence intensity of 5-FAM. To test the effect of PAN-811 on the bioactivity of MMP-9, black 96-well plates (Cat #3603, Costar®), Corning Inc.) were pre-warmed at 37° C. 4-aminophenylmercuric acetate (APMA) was diluted 20-fold with assay buffer (both in MMP assay kit) to a final concentration of […]. Recombinant human pro-MMP-9 (10 μg/ml, Cat #72009, AnaSpec, San Jose) was pre-incubated with 1 mM APMA at 37° C. for 2 hours to activate this enzyme. […] Treated wells were incubated at room temperature for 30 min and the fluorescence intensity of 5-FAM was determined for each sample by measurement at excitation/emission wavelengths of 485 nm/520 nm with a fluorometer and reported in RFU (FIGS. 6A and 6B). […]

[2] = tested on: Middle Cerebral Artery Occlusion (MCAo) rats; assay: Middle cerebral artery occlusion (MCAo) rat model: infarct volume, edema volume, premature mortality; format: in vivo, male Sprague-Dawley rats
Procedure: For Middle Cerebral Artery Occlusion (MCAo), male Sprague-Dawley rats (270 to 330 g) were anesthetized with gaseous isoflurane. With aseptic surgical techniques, a laser-Doppler probe was placed on the right temporal-lateral portion of the skull over a region of the cortex which is supplied by the middle cerebral artery to record cerebral blood flow (CBF). CBF was recorded before and after arterial occlusion. The bifurcation of the right external common carotid 8 artery (ECA) and internal common carotid artery (ICA) was surgically exposed. A 4-0 monofilament suture treated with a silicone coating to enlarge the tip to better achieve an arterial block was placed into the ECA stump, and advanced up the ICA approximately 20 mm until a drop in CBF of approximately 75% or greater was measured by laser Doppler flowmetry (PeriFlux PF5010, Perimed). The duration of the ischemia was 120 minutes.
PAN-811 was originally dissolved to a concentration of 25.6 mmol/L in 7% (v/v) polyethylene glycol (PEG) 300, 3% ethanol (EtOH), 28.6 mmol/L citric acid and 5.7 mmol/L L-ascorbic acid solution. 25.6 mmol/L was the highest concentration of PAN-811 used for dosing. This solution was further diluted with normal saline to produce dosing solutions of 2.56 mmol/L, 5.12 mmol/L, and 10.2 mmol/L on the day of surgery. Vehicle dosing solutions were identical in components to the 5.12 mmol/L PAN-811 group (Vehicle Low), or the 10.2 mmol/L group (Vehicle High). These treatments were delivered intravenously route into MCAo rats at reperfusion time. […]
After 22 hours of treatment, the animals were sacrificed by CO2 asphyxiation, and their brains sectioned at 2 mm intervals. […] Brain areas were traced and measured using a computerized image analysis system (SimplePCI Version 4.0.0, Compix Inc) to determine infarct volume (in cubic millimeters, mm^3), whereby unstained areas were defined as ischemic lesions of infarcted tissue.
Ischemic stroke often results in brain edema (Ayata et al., 2002). Therefore, the volumes for both ipsilateral and contralateral side hemispheres of MCAo rats were measured 22 hours later, and the edema volumes (hemisphere volume of the ipsilateral side hemisphere volume of contralateral one) were calculated, and expressed as mean±SEM (FIG. 1B). […]
Brain edema can result in death of MCAo rats. Therefore, the mortalities for vehicle groups and PAN-811 treated groups, as explained in Examples 1 and 2, were counted (FIG. 1C). Mortalities of general vehicle treated groups (open bar) and collective PAN-811 treated groups (black bar) were determined and premature death rates were expressed as percentage of total animal number in each condition. […]

T1 sequence (P14780 107-707 limits assumed): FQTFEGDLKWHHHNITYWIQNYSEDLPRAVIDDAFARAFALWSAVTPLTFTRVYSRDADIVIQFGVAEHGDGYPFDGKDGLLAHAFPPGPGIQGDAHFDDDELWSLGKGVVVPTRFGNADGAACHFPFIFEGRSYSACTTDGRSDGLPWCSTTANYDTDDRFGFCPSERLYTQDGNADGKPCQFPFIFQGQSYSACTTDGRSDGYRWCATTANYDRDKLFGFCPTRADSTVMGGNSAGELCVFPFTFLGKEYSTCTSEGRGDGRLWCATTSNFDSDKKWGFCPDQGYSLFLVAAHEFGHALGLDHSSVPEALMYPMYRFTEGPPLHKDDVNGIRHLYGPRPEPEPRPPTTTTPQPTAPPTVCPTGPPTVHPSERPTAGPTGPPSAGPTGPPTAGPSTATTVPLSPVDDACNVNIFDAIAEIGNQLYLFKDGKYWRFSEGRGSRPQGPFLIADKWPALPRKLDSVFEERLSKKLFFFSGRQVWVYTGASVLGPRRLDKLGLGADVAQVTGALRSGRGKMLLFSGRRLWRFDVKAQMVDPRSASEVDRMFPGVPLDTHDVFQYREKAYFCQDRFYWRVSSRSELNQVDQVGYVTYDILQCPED

SMILES: NC(=S)N/N=C/c1ncccc1N [PAN-811, 3-aminopyridine-2-carboxaldehyde thiosemicarbazone]
- suppression of pro-MMP-9-catalyzed increase in fluorescence intensity [1]: 64%
- reduction in edema volume ([2]; 2 mg/kg i.v., compared to the high vehicle group, 22 hours): 70%
- reduction in edema volume ([2]; 5 mg/kg i.v., compared with High vehicle group, 22 hours (data not shown)): 31%
- premature mortality rate ([2]; all PAN-811 treated groups (9 of 57), vehicle groups 28%): 15.8%
- reduction of premature mortality ([2]; all PAN-811 treated groups versus the 2 vehicle-treated groups): 44%
